In PMC4051630, “A Comparison of Protein Kinases Inhibitor Screening Methods Using Both Enzymatic Activity and Binding Affinity Determination” (PLoS ONE, 2014):

Assays:
Test in all cases: Differential Scanning Fluorimetry (DSF) Tm shift
Type in all cases: binding
PAK4 Catalytic Domain = target: T1, PAK4 Catalytic Domain (Homo sapiens, UniProt O96013); conditions: 2 µM protein, 10 µM inhibitor, average of 3 experiments, each in duplicate
T1 construct: For all of them, we expressed and purified the catalytic domain separately; His-tag; made in house; host or cells: Escherichia coli
T1 sequence (O96013 321-572 limits assumed): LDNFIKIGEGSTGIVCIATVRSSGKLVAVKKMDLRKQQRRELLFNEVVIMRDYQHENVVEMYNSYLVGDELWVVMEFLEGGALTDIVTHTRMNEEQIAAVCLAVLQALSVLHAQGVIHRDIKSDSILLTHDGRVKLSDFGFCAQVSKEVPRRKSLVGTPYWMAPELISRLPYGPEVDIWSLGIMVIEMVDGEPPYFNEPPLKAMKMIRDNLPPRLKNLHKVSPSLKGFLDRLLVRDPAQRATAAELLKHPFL

CDK2 + Cyclin A = target: T2, CDK2 + Cyclin A (Homo sapiens, UniProt P24941); conditions: CDK2 + Cyclin A; 2 µM protein, 10 µM inhibitor; average of 3 experiments, each in duplicate
T2 construct: CDK2 (P24941); 1–299; His-tag; made in house; host or cells: Escherichia coli

DMPK Catalytic Domain = target: T3, DMPK Catalytic Domain (Homo sapiens, UniProt Q09013); conditions: 2 µM protein, 10 µM inhibitor, average of 3 experiments, each in duplicate
T3 construct: For all of them, we expressed and purified the catalytic domain separately; His-tag; made in house; host or cells: Escherichia coli
T3 sequence (Q09013 71-339 limits assumed): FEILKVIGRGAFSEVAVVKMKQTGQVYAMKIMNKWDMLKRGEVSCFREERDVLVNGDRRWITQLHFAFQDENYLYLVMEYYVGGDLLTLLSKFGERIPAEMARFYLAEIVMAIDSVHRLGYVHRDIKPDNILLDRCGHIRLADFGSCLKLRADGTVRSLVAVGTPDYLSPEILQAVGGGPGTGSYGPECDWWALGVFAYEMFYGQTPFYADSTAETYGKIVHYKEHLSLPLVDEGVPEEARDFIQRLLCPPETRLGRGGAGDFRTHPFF

[1] = target: SRC Catalytic Domain+SH2+SH3 (Homo sapiens, UniProt P12931); conditions: 2 µM protein, 10 µM inhibitor, average of 3 experiments, each in duplicate
AKT3 Catalytic Domain = target: T4, AKT3 Catalytic Domain (Homo sapiens, UniProt Q9Y243); conditions: 2 µM protein, 10 µM inhibitor, average of 3 experiments, each in duplicate
T4 construct: AKT3 (Q9Y243); CD; His-tag; made in house; host or cells: Escherichia coli
T4 sequence (Q9Y243 122-479): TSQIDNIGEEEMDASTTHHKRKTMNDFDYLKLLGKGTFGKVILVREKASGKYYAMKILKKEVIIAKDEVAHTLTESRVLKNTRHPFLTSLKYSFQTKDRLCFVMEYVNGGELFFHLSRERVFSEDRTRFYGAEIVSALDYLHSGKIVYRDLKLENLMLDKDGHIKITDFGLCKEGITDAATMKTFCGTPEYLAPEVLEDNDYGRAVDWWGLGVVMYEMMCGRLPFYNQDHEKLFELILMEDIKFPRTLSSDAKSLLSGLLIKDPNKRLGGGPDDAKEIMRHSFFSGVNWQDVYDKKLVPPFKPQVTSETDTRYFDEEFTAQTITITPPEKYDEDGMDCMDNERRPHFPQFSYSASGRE

STK3 Catalytic Domain = target: T5, STK3 Catalytic Domain (Homo sapiens, UniProt Q13188); conditions: 2 µM protein, 10 µM inhibitor, average of 3 experiments, each in duplicate
T5 construct: For all of them, we expressed and purified the catalytic domain separately; His-tag; made in house; host or cells: Escherichia coli
T5 sequence (Q13188 27-278 limits assumed): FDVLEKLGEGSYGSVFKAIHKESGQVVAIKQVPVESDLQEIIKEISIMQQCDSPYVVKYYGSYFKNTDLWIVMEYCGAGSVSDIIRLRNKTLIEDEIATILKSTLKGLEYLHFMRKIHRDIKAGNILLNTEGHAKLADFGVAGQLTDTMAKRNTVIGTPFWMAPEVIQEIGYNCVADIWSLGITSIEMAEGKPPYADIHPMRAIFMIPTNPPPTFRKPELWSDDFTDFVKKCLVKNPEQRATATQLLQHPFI

CDK2 + Cyclin E = target: T6, CDK2 + Cyclin E (Homo sapiens, UniProt P24941); conditions: CDK2 + Cyclin E; 2 µM protein, 10 µM inhibitor; average of 3 experiments, each in duplicate
T6 construct: CDK2 (P24941); 1–299; His-tag; made in house; host or cells: Escherichia coli

[2] = target: T7, STK3 Catalytic domain+SARAH (Homo sapiens, UniProt Q13188); conditions: 2 µM protein, 10 µM inhibitor, average of 3 experiments, each in duplicate
T7 construct: for 8, we also made a longer version containing one or more additional domains; His-tag; made in house; host or cells: Escherichia coli
T7 sequence (Q13188 1-491): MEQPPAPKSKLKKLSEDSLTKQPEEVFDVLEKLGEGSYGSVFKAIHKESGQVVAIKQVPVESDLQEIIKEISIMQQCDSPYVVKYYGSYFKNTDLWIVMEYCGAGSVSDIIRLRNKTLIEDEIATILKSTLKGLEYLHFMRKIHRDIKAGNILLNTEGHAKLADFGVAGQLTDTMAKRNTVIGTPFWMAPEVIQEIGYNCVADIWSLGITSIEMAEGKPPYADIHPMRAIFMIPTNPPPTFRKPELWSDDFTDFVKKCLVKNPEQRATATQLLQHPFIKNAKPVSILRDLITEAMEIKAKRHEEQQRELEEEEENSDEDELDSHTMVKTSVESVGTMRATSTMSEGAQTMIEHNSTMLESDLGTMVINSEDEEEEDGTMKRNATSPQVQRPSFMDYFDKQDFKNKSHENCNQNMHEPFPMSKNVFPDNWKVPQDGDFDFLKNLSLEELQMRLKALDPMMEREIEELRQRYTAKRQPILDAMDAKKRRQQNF

FAK2 Catalytic Domain = target: T8, FAK2 Catalytic Domain (Homo sapiens, UniProt Q14289); conditions: 2 µM protein, 10 µM inhibitor, average of 3 experiments, each in duplicate
T8 construct: For all of them, we expressed and purified the catalytic domain separately; His-tag; made in house; host or cells: Escherichia coli
T8 sequence (Q14289 425-683 limits assumed): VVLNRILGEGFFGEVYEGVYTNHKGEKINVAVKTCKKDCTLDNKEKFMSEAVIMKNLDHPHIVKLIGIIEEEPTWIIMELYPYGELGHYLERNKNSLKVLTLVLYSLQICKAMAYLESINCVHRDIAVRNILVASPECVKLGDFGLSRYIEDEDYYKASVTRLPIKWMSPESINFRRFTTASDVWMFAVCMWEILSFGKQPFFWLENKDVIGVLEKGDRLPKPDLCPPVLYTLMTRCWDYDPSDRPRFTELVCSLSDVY

CHK2 Catalytic Domain = target: T9, CHK2 Catalytic Domain (Homo sapiens, UniProt O96017); conditions: 2 µM protein, 10 µM inhibitor, average of 3 experiments, each in duplicate
T9 construct: For all of them, we expressed and purified the catalytic domain separately; His-tag; made in house; host or cells: Escherichia coli
T9 sequence (O96017 220-486 limits assumed): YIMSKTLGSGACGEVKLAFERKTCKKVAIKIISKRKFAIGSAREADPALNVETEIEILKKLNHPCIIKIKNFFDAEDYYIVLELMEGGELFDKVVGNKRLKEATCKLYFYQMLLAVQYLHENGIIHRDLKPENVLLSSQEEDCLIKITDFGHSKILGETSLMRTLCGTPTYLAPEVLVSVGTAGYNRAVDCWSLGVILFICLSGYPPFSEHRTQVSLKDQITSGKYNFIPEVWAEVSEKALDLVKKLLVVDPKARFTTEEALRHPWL

FES Catalytic Domain+SH2 = target: T10, FES Catalytic Domain+SH2 (Homo sapiens, UniProt P07332); conditions: 2 µM protein, 10 µM inhibitor, average of 3 experiments, each in duplicate
T10 construct: for 8, we also made a longer version containing one or more additional domains; His-tag; made in house; host or cells: Escherichia coli
T10 sequence (P07332 448-822 limits assumed): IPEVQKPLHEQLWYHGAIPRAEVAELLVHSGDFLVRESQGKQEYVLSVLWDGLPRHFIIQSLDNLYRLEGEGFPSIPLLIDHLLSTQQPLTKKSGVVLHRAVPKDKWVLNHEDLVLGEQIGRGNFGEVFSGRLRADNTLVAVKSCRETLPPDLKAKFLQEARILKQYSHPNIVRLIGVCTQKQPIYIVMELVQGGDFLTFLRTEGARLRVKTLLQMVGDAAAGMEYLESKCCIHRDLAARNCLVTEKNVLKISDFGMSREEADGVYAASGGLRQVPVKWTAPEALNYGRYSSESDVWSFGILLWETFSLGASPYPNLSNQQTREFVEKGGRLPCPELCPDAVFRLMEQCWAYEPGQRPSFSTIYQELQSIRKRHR

PAK7 Catalytic Domain = target: T11, PAK7 Catalytic Domain (Homo sapiens, UniProt Q9P286); conditions: 2 µM protein, 10 µM inhibitor, average of 3 experiments, each in duplicate
T11 construct: For all of them, we expressed and purified the catalytic domain separately; His-tag; made in house; host or cells: Escherichia coli
T11 sequence (Q9P286 449-700 limits assumed): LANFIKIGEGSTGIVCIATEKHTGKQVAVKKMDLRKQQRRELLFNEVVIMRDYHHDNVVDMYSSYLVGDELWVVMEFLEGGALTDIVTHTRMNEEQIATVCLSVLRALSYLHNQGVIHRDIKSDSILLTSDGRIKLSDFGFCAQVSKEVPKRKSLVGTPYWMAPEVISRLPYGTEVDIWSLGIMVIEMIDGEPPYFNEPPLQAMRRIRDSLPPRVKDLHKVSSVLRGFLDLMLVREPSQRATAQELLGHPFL

SRC Catalytic Domain = SRC Catalytic Domain (Homo sapiens, UniProt P12931); set-up: For all of them, we expressed and purified the catalytic domain separately; His-tag; made in house; host or cells: Escherichia coli; conditions: 2 µM protein, 10 µM inhibitor, average of 3 experiments, each in duplicate
[3] = target: T12, PAK4 Catalytic Domain+PBD (Homo sapiens, UniProt O96013); conditions: 2 µM protein, 10 µM inhibitor, average of 3 experiments, each in duplicate
T12 construct: for 8, we also made a longer version containing one or more additional domains; His-tag; made in house; host or cells: Escherichia coli
T12 sequence (O96013 whole entry, the tested form may be a part): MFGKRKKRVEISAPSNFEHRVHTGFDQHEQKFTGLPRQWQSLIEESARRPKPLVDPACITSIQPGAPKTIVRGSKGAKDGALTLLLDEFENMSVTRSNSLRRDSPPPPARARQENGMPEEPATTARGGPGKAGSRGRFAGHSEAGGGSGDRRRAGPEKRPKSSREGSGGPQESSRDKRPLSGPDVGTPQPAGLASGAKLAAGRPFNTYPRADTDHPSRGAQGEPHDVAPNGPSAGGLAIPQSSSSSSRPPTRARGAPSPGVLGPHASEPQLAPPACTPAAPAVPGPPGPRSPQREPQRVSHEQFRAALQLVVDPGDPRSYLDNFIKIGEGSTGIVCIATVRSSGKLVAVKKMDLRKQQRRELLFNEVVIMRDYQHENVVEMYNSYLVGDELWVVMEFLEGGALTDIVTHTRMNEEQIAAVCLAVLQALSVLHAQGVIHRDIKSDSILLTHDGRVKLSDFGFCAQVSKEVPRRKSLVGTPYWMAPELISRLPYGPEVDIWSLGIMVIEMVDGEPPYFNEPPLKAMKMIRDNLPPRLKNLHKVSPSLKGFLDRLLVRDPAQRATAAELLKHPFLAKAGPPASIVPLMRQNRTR

FES Catalytic Domain = target: T13, FES Catalytic Domain (Homo sapiens, UniProt P07332); conditions: 2 µM protein, 10 µM inhibitor, average of 3 experiments, each in duplicate
T13 construct: For all of them, we expressed and purified the catalytic domain separately; His-tag; made in house; host or cells: Escherichia coli
T13 sequence (P07332 561-822 limits assumed): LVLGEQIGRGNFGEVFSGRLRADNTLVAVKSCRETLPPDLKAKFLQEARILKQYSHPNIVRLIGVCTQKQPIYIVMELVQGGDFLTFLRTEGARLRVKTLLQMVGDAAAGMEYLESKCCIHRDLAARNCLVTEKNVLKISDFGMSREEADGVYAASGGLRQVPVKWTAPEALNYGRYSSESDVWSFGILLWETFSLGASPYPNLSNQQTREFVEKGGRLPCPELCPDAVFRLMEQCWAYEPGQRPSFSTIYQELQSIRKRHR

| Compound | Melting temperature (Tm) shift (PAK4 Catalytic Domain) | Melting temperature (Tm) shift (CDK2 + Cyclin A) | Melting temperature (Tm) shift (DMPK Catalytic Domain) | Melting temperature (Tm) shift [1] | Melting temperature (Tm) shift (AKT3 Catalytic Domain) | Melting temperature (Tm) shift (STK3 Catalytic Domain) | Melting temperature (Tm) shift (CDK2 + Cyclin E) | Melting temperature (Tm) shift [2] | Melting temperature (Tm) shift (FAK2 Catalytic Domain) | Melting temperature (Tm) shift (CHK2 Catalytic Domain) | Melting temperature (Tm) shift (FES Catalytic Domain+SH2) | Melting temperature (Tm) shift (PAK7 Catalytic Domain) | Melting temperature (Tm) shift (SRC Catalytic Domain) | Melting temperature (Tm) shift [3] | Melting temperature (Tm) shift (FES Catalytic Domain) |
| --- | --- | --- | --- | --- | --- | --- | --- | --- | --- | --- | --- | --- | --- | --- | --- |
| Cn1cc(/C=C2\C(=O)Nc3ccc(S(N)(=O)=O)cc32)c2ccccc21 [Syk Inhibitor] | 1.7 degrees Celcius | 0.7 degrees Celcius | 0.9 degrees Celcius | 0.2 degrees Celcius | 0.0 degrees Celcius | 2.0 degrees Celcius | 0.4 degrees Celcius | 2.0 degrees Celcius | 0.4 degrees Celcius | 5.2 degrees Celcius | 0.4 degrees Celcius | 0.9 degrees Celcius | 0.1 degrees Celcius | 2.2 degrees Celcius | 2.0 degrees Celcius |
| CN(C)CCCn1cc(C2=C(c3c[nH]c4ccccc34)C(=O)NC2=O)c2ccccc21 [Bisindolylmaleimide I] | 1.0 degrees Celcius | 1.8 degrees Celcius | 3.9 degrees Celcius | 0.0 degrees Celcius | 0.4 degrees Celcius | 1.0 degrees Celcius | 0.9 degrees Celcius | 2.9 degrees Celcius | 0.5 degrees Celcius | 4.6 degrees Celcius | 0.6 degrees Celcius | 0.6 degrees Celcius | 0.4 degrees Celcius | 0.6 degrees Celcius | 0.6 degrees Celcius |
| O=C1Cc2c([nH]c3ccc([N+](=O)[O-])cc23)-c2ccccc2N1 [Alsterpaullone] | 0.2 degrees Celcius | 0.4 degrees Celcius | 1.8 degrees Celcius | 0.2 degrees Celcius | 0.1 degrees Celcius | 0.3 degrees Celcius | 0.2 degrees Celcius | 0.7 degrees Celcius | 0.4 degrees Celcius | 0.9 degrees Celcius | 0.1 degrees Celcius | 0.3 degrees Celcius | 0.0 degrees Celcius | 0.3 degrees Celcius | 0.3 degrees Celcius |
| N#CCCc1ccc2c(c1)-c1[nH]c3ccc([N+](=O)[O-])cc3c1CC(=O)N2 [Alsterpaullone, 2-Cyanoethyl] | 0.9 degrees Celcius | 0.5 degrees Celcius | 3.4 degrees Celcius | 0.3 degrees Celcius | 0.1 degrees Celcius | 1.7 degrees Celcius | 0.5 degrees Celcius | 1.5 degrees Celcius | 0.6 degrees Celcius | 1.9 degrees Celcius | 0.3 degrees Celcius | 1.3 degrees Celcius | 0.2 degrees Celcius | 0.3 degrees Celcius | 1.3 degrees Celcius |
| DNA-PK Inhibitor V | 0.4 degrees Celcius | 0.0 degrees Celcius | 0.6 degrees Celcius | 0.0 degrees Celcius | 0.1 degrees Celcius | 0.0 degrees Celcius | 0.2 degrees Celcius | 0.5 degrees Celcius | 0.3 degrees Celcius | 0.2 degrees Celcius | 0.3 degrees Celcius | 0.0 degrees Celcius | 0.2 degrees Celcius | 0.5 degrees Celcius | 0.1 degrees Celcius |
| NC(=O)Nc1sc(-c2ccccc2)cc1C(N)=O [IKK-2 Inhibitor VI] | 1.3 degrees Celcius | 0.8 degrees Celcius | 1.4 degrees Celcius | 1.1 degrees Celcius | 0.0 degrees Celcius | 2.4 degrees Celcius | 0.2 degrees Celcius | 2.0 degrees Celcius | 1.4 degrees Celcius | 3.6 degrees Celcius | 0.7 degrees Celcius | 1.3 degrees Celcius | 1.3 degrees Celcius | 2.5 degrees Celcius | 1.8 degrees Celcius |
| O=C1Nc2ccc3ncsc3c2/C1=C/c1cnc[nH]1 [PKR Inhibitor] | 1.9 degrees Celcius | 4.4 degrees Celcius | 0.8 degrees Celcius | 0.3 degrees Celcius | 0.3 degrees Celcius | 4.9 degrees Celcius | 4.3 degrees Celcius | 7.0 degrees Celcius | 1.1 degrees Celcius | 4.0 degrees Celcius | 0.7 degrees Celcius | 1.9 degrees Celcius | 0.7 degrees Celcius | 1.8 degrees Celcius | 3.2 degrees Celcius |
